Results as given in PubChem BioAssay AID1194 (EPA DSSTox, 2008).
Activity calls are given as the source filed them.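 Rule for the calls: active = chemicals rated mutagenic or weakly mutagenic in the Salmonella bacterial test by one literature review, or positive overall by another; inconclusive = no clear call, values can overlap the other calls; inactive = the rest.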 Numbered stars: 1 amine (or outer) side, 2 acyl side, 3 side chain; on linkers, the order of the positions; unused ones are H or OH. Bridge positions count the residues as written; N and C are the ends. Square brackets hold non-standard residues; d marks the D form. Peptide text beside a SMILES is read from it. I, II: the chains in the order shown. Actinocin(9to1) = Cc1c2oc3c(C)ccc(C(=O)[*:1])c3nc-2c(C(=O)[*:2])c(N)c1=O; NMeV = CN[C@H](C(=O)O)C(C)C; Sar = CNCC(=O)O

System: Salmonella typhimurium Ames mutagenicity, literature compiled
Experiment: DSSTox (CPDBAS) Carcinogenic Potency Database Salmonella Mutagenicity
Summary of the method: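 Literature-compiled Salmonella result: chemical called active if rated overall "mutagenic" or "weakly mutagenic" by Zeiger or overall "positive" by the EPA Gene-Tox Program.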

| SMILES | outcome |
| --- | --- |
| OC[C@H]1O[C@@](CO)(O[C@H]2O[C@H](CO)[C@@H](O)[C@H](O)[C@H]2O)[C@@H](O)[C@@H]1O | inactive; active |
| Cc1cc(N=Nc2c(O)ccc3ccccc23)c(S(=O)(=O)O)cc1Cl | active |
| C=Cc1cccc(C)c1 | inactive; active |
| C=CC#N | active |
| O=C1O[C@H]([C@H](O)CO)C(O)=C1O | inactive |
| CCCCC(CC)COP(=O)(OCC(CC)CCCC)OCC(CC)CCCC (stereo not drawn) | inactive; active |
| Nc1ccc2nc3ccccn3c2n1 | active |
| CCCC(Cl)CCC(Cl)CCC(Cl)CCC(Cl)CCC(Cl)CCC(Cl)CCC(C)Cl (stereo not drawn) | inactive |
| Cc1c2oc3c(C)ccc(C(=O)N[C@@H]4C(=O)N[C@H](C(C)C)C(=O)N5CCC[C@H]5C(=O)N(C)CC(=O)N(C)[C@@H](C(C)C)C(=O)O[C@@H]4C)c3nc-2c(C(=O)N[C@@H]2C(=O)N[C@H](C(C)C)C(=O)N3CCC[C@H]3C(=O)N(C)CC(=O)N(C)[C@@H](C(C)C)C(=O)O[C@@H]2C)c(N)c1=O (I: T[dV]P[Sar][NMeV] / II: T[dV]P[Sar][NMeV]; ester I:1-I:C, II:1-II:C; linker I:N-II:N via Actinocin(9to1)) | inactive; active |
| NC(N)=S | inactive; active |
| C=CCc1ccc2c(c1)OCO2 | inactive; active |
| CN(C)/N=N/c1nc[nH]c1C(N)=O | active |
| CCOc1ccc(NC(C)=O)cc1[N+](=O)[O-] | active; inactive |
| C1N2CN3CN1CN(C2)C3 | active |
| O=C1NC(=O)C(c2ccccc2)(c2ccccc2)N1 | inactive |
| O=C(O)CCCc1ccc(N(CCCl)CCCl)cc1 | active; inactive |
| CN(C)c1ccc(N=NS(=O)(=O)O)cc1 | active; inactive |
| Nc1ccc(NCCO)c([N+](=O)[O-])c1 | active |
| C=CC(=O)c1ccc2c(c1)OCO2 | inactive; active |
| O=c1c(O)c(-c2ccc(O)cc2)oc2cc(O)cc(O)c12 | active |
| COc1cc(-c2ccc(N)c(OC)c2)ccc1N | active; inactive |
| O=S(=O)(O)c1ccc(N=Nc2c(O)ccc3cc(S(=O)(=O)O)ccc23)cc1 | inactive; active |
| O=[N+]([O-])c1ccc(NCCO)c(OCCO)c1 | active |
| O.O.O.O.O.O.O=S(=O)([O-])[O-].[Ni+2] | inactive; active |
| O=NN1CCOCC1 | active |
| Cc1cc(O)c(C)c2c1OC(C)(CCCC(C)CCCC(C)CCCC(C)C)CC2 (stereo not drawn) | inactive; active |

| SMILES | outcome |
| --- | --- |
| CC(C)Oc1ccccc1OC(=O)N(C)N=O | active |
| [C-]1=CC=CC1.[C-]1=CC=CC1.[Cl-].[Cl-].[Ti+4] | active; inactive |
| CC(Cl)(Cl)Cl | active |
| OCc1ccccc1 | inactive |
| NCC(=O)O | inactive |
| O=S(=O)(O)c1ccc2c(N=Nc3ccc(S(=O)(=O)O)c4ccccc34)c(O)c(S(=O)(=O)O)cc2c1 | inactive |
| Cc1ccc(N=Nc2c(O)c(S(=O)(=O)O)cc3ccc(S(=O)(=O)O)cc23)c(C)c1 | active |
| CN=[N+](C)[O-] | active |
| O=C(Nc1nc(-c2ccc([N+](=O)[O-])o2)cs1)C(F)(F)F | active |
| O=C/C=C/O | inactive |
| O=C(O)c1[nH]n(-c2ccc(S(=O)(=O)O)cc2)c(=O)c1N=Nc1ccc(S(=O)(=O)O)cc1 | inactive; active |
| COc1c2occc2cc2ccc(=O)oc12 | active |
| Cc1ccc(N)cc1Cl | inactive; active |
| O=NN1CCCCCCC1 | active; inactive |
| CN(N=O)C(N)=O | active |
| CN(C)CCOC(C)(c1ccccc1)c1ccccn1 (stereo not drawn) | inactive |
| CCN(Cc1cccc(S(=O)(=O)[O-])c1)c1ccc(C(=C2C=CC(=[N+](C)C)C=C2)c2ccc(N(CC)Cc3cccc(S(=O)(=O)O)c3)cc2)cc1 | active |
| BrC(Br)Br | active |
| c1ccc2c(c1)Nc1ccccc1S2 | inactive |
| CC1CN(N=O)CC(C)O1 (stereo not drawn) | active |
| O=C(N[C@H](CO)[C@H](O)c1ccc([N+](=O)[O-])cc1)C(Cl)Cl | inactive |
| N[C@@H](Cc1ccc(N(CCCl)CCCl)cc1)C(=O)O | active; inactive |
| [O-]/[N+](=N\O)c1ccccc1 | active; inactive |
| NS(=O)(=O)c1cc2c(cc1Cl)NCNS2(=O)=O | inactive; active |
| ClCC(Cl)(Cl)Cl | inactive; active |
| O=S1(=O)CCCO1 | active; inactive |

| SMILES | outcome |
| --- | --- |
| CCCl | active |
| ClCc1ccccc1 | active |
| O=S(=O)(O)c1ccc(N=Nc2cc(S(=O)(=O)O)c3ccccc3c2O)c2ccccc12 | active; inactive |
| CN(N=O)c1cccnc1 | inactive; active |
| ClCc1cccnc1 | active; inactive |
| CC(O)CO (stereo not drawn) | inactive |
| c1ccccc1 | inactive; active |
| CCc1ccc(C(c2ccc(CC)cc2)C(Cl)Cl)cc1 | active |
| CCCCN(N=O)C(=N)N[N+](=O)[O-] | active |
| CCNC(=S)NCC | inactive |
| [Cl-].[Cl-].[Hg+2] | inactive; active |
| Cc1cc(=O)[nH]c(=S)[nH]1 | inactive |
| O=NN1CCCCC1 | active |
| CC/C(=C(/CC)c1ccc(O)cc1)c1ccc(O)cc1 | inactive |
| CCN(CC)N=O | active; inactive |
| COC(=O)C(c1ccccc1)C1CCCCN1 (stereo not drawn) | inactive |
| C=C(Cl)Cl | active; inactive |
| CC(=O)Nc1ccc2c(c1)Cc1ccccc1-2 | active |
| O=NN(CCO)CCO | active; inactive |
| C/C=C/C=C/C=O | active |
| OCCOCCO | inactive; active |
| O=C1CCCO1 | inactive; active |
| CC(N)=O | inactive; active |
| Cc1ccc(N=C=O)cc1N=C=O | active |
| C[C@H]1C(=O)O[C@@H]2CCN3CC=C(COC(=O)[C@](C)(O)[C@]1(C)O)[C@H]23 | inactive; active |
| N/C(=N\O)c1ccc([N+](=O)[O-])o1 | active |

| SMILES | outcome |
| --- | --- |
| Oc1cc2c(cc1O)[C@H]1c3ccc(O)c(O)c3OC[C@@]1(O)C2 | inactive; active |
| Cc1ncc([N+](=O)[O-])n1C | active |
| Oc1cccc2cccnc12 | active; inactive |
| Cc1cc(=O)n(-c2ccccc2)n1C | inactive; active |
| O=NN1CC=CCC1 | active |
| O=C(O)CN(CCN(CC(=O)O)CC(=O)O)CC(=O)O | inactive |
| CC1=NN(c2ccccc2)C(=O)C1 | inactive |
| Nc1cccc2c(N)cccc12 | active |
| CN(C)N | active |
| Cc1ccc(S(=O)(=O)Oc2ccc(N=Nc3ccc(-c4ccc(N=Nc5c(O)ccc6cc(S(=O)(=O)O)cc(S(=O)(=O)O)c56)c(C)c4)cc3C)cc2)cc1 | active |
| C#C[C@]1(O)CC[C@H]2[C@@H]3CCC4=C(CCC(=O)C4)[C@H]3CC[C@@]21C | inactive; active |
| O=C(OOC(=O)c1ccccc1)c1ccccc1 | inactive; active |
| Cc1ccc(N=Nc2c(O)ccc3ccccc23)c([N+](=O)[O-])c1 | active; inactive |
| CC(CCl)OC(C)CCl (stereo not drawn) | active |
| CCCCN(CCCCO)N=O | active; inactive |
| NC(=S)Nc1ccccc1 | inactive |
| ClC1=C(Cl)[C@]2(Cl)[C@@H]3[C@@H]4C[C@@H]([C@H]5O[C@@H]45)[C@@H]3[C@@]1(Cl)C2(Cl)Cl | inactive; active |
| CCN(CC)C(=S)S | inactive |
| O=Cc1ccco1 | active; inactive |
| S=C(NC1CCCCC1)NC1CCCCC1 | inactive; active |
| O=c1[nH]cc(F)c(=O)[nH]1 | inactive; active |
| O=C(O)COc1ccc(Cl)cc1Cl | inactive |
| Cc1cc2c(nc1N)[nH]c1ccccc12 | active; inactive |
| Nc1ccc(O)c(N)c1 | active; inactive |
| ClC1C2(Cl)C3C4C5OC5C5C4C1(Cl)C(Cl)(C53)C2(Cl)Cl (stereo not drawn) | active |
| NC1CCCCC1 | inactive; active |

| SMILES | outcome |
| --- | --- |
| CCCCCC(N)=O | inactive; active |
| CCOP(=S)(OCC)SC1OCCOC1SP(=S)(OCC)OCC (stereo not drawn) | active; inactive |
| O=C1CN(/N=C/c2ccc([N+](=O)[O-])o2)C(=O)N1 | active |
| OCCO | inactive |
| C[N+](=O)[O-] | inactive; active |
| Nc1cc([N+](=O)[O-])ccc1C(=O)O | active |
| CCCCC(CC)COC(=O)COc1ccc(Cl)cc1Cl (stereo not drawn) | inactive |
| CCCCCCN(N=O)C(N)=O | active |
| CCc1cc(C(N)=S)ccn1 | inactive; active |
| C=CC(=O)NCO | inactive |
| C1OC1C1CO1 (stereo not drawn) | active |
| COC(=O)[C@H]1[C@H]2C[C@@H]3c4[nH]c5cc(OC)ccc5c4CCN3C[C@H]2C[C@@H](OC(=O)c2cc(OC)c(OC)c(OC)c2)[C@@H]1OC | inactive |
| Cc1ccc(N)c(C)c1 | active |
| Cn1cc[nH]c1=S | inactive; active |
| NC(=S)Nc1cccc2ccccc12 | active; inactive |
| CN(C)C(=S)[S][Pb][S]C(=S)N(C)C | active |
| CCC(C)c1cc([N+](=O)[O-])cc([N+](=O)[O-])c1O (stereo not drawn) | inactive |
| Nc1ccccc1C(=O)O | inactive |
| CC(=O)c1ccc(S(=O)(=O)NC(=O)NC2CCCCC2)cc1 | inactive |
| CCNc1nc(Cl)nc(NC(C)C)n1 | inactive; active |
| C=O | active; inactive |
| COc1cccc2c1C(=O)c1c(O)c3c(c(O)c1C2=O)C[C@@](O)(C(=O)CO)C[C@@H]3O[C@H]1C[C@H](N)[C@H](O)[C@H](C)O1 | active |
| C=CC(O)c1ccc(OC)cc1 (stereo not drawn) | inactive; active |
| O=C1c2cccc(O)c2C(=O)c2c(O)cccc21 | active |
